One data set has as its system house flies. The class given is in vivo, Musca domestica. An excerpt: A further example of the use of the compounds of the present invention is shown by testing decane-1,2-diol against house flies in a standard industry protocol for insecticides.
In data set [1] the test system is house dust mite Dermatophagoides pteronyssinus. Put plainly: House dust mite immersion test, mortality. The format is in vivo. An excerpt:
The utility of the vicinal diols is further illustrated by the results of experiments against the house dust mite Dermatophagoides pteronyssinus according to accepted industry protocols. Mites were sealed in a cotton envelope and briefly immersed (5 seconds) in dilute solutions (2.5%) of selected diols. The mites were examined one hour after immersion and mortality calculated. The results are shown in Table 3 below with comparative results for a proprietary carpet shampoo, permethrin insecticide and water (as controls).

Data set [2] concerns human body louse (Pediculus humanus). In words: LC50 tests against the human body louse. The settings on record: for Potency index: LC50 value compared with that of 1,2-decanediol (=100%); for LC50: read-out: LC50 value; for LC50 / LC50 value: tests against lice (Pediculus humanus).
Data set [3] deals with lice. In words: Immersion of lice in test formulations, mortality. The format is in vivo. The settings on record: immersed for a few seconds and blotted dry. An excerpt: (§1) Vicinal diols are readily formulated in aqueous systems using non-toxic co-solvents such as isopropyl alcohol or by use of surfactants such as Tween®. This makes them eminently suitable for inclusion into many household or industrial, pesticidal or cleansing products. In particular they can be incorporated into pharmaceutical preparations for use on humans or animals. The treatment of lice and cockroaches with formulations containing 1,2-octanediol or 1,2-decanediol is tabulated in Table 4 along with control results for the solvent systems employed. In a procedure following standard industry protocols the subject animals were immersed for a few seconds in the test formulations and blotted dry. Mortality after 24 hrs was measured for the lice, after 1 hr for the cockroaches.

In a further data set the test system is cockroaches. In words: Immersion of cockroaches in test formulations, mortality. The settings on record: immersed for a few seconds and blotted dry. The format is in vivo.
From the text: as §1

Data set [4] has as its system lice. In words: Egg-laying activity of treated lice. The class given is in vivo. As to conditions: FIG. 2. An excerpt: FIG. 2 is a further graph illustrating a relationship between diol chain length and egg-laying activity of treated lice.
Data set [5] relates to human body louse (Pediculus humanus). As to conditions: in vivo.

Like-named read-outs stand apart in the source and are kept apart here.

Take `CCCCCCCCC(O)CO` (racemic) [1,2-Decanediol]: the Mortality entry is listed as “More than 80%” in the data set on house flies (in vivo) and 95% in data set [1] (in vivo). The Potency index in data set [2] worked out at 100%. Moreover, the “pediculicidal activity (in words)” value in data set [2] (against lice) is “significantly superior to 1,3-decanediol”. Further, the LC50 in data set [2] came to 12 mM.

Molecule `CC1(C)C(C=C(Cl)Cl)C1C(=O)OCc1cccc(Oc2ccccc2)c1` (stereo not drawn) [0.25% Permethrin, Permethrin] displayed a Mortality in data set [1] (mites in cotton envelope immersed 5 seconds, diols as 2.5% solutions, examined one hour after immersion) of 100%. Further, the “Lice mortality after 24 hr” value with lice [3] was 100%. In addition, the “Cockroach mortality after 1 hr” value in the data set with cockroaches amounted to 100%.

With `CCCC(O)C(O)CO` (stereo not drawn) [1,2,3-Hexanetriol], in data set [2], the Potency index result was “Not effective” and the LC50 value entry was “Not calculable”.

On to `OCCCCC(O)CO` (stereo not drawn) [1,2,6-Hexanetriol], for which, in data set [2], the Potency index entry is recorded as “Not effective” and the LC50 value entry was “Not calculable”.

Regarding `CCC(O)CO` (stereo not drawn) [1,2-Butanediol], in data set [2], the Potency index result is recorded as “Not effective” and the LC50 value is greater than 700 mmol.

In data set [2], `CCCCC(O)CO` (stereo not drawn) [1,2-Hexanediol] had a Potency index of 6% and an LC50 value greater than 200 mmol.

In data set [1] (in vivo), `CCCCCCC(O)CO` (stereo not drawn) [1,2-Octanediol] returned a Mortality of 65%. The “prevention of egg laying (in words)” value with lice [4] was “especially efficacious in the prevention of egg laying”. Besides, in data set [2], the Potency index is listed as 30% and the LC50 came out at 40 mM.

On to `CC(O)CCO` (stereo not drawn) [1,3-Butanediol], for which, in data set [2], the Potency index result is recorded as “Not effective” and the LC50 value was greater than 2000 mmol.

`CCCCCCCC(O)CCO` (stereo not drawn) [1,3-Decanediol]: in data set [2], the Potency index was 30% and the median lethal concentration (LC50) was determined as 40 mM.

For the molecule `CCCCCC(O)CCO` (stereo not drawn) [1,3-Octanediol], in data set [2], the Potency index entry is on record as “Not effective” and the LC50 value was greater than 400 mmol.

For `CC(O)CCCCO` (stereo not drawn) [1,5-Hexanediol], in data set [2], the Potency index entry is “Not effective” and the LC50 value result is “Not calculable”.

Consider `OCCCCCCO` [1,6-Hexanediol], for which the LC50 value result in data set [5] is “Not calculable”. Moreover, the Potency index entry in data set [2] was “Not effective”.

With `CCCCCCCCCCO` [1-Decanol], in data set [2], the Potency index is 32% and the 50% lethal concentration (LC50) was 35 mM.

As to `CC(O)CCC(C)O` (stereo not drawn) [2,5-Hexanediol], in data set [2], the Potency index result is given as “Not effective” and the LC50 value entry is “Not calculable”.

In the case of `CCCCCCCCC(C)O` (stereo not drawn) [2-Decanol], in data set [2], the Potency index was found to be 34% and the median lethal concentration (LC50) worked out at 37 mM.

Take `CCCC(O)C(CC)CO` (stereo not drawn) [2-Ethyl-1,3-hexanediol]: in data set [5], the LC50 turned out to be 60 mM. The Potency index in data set [2] stood at 20%.

With `CCCCC(CC)CO` (stereo not drawn) [2-Ethyl-1-hexanol], the LC50 value in data set [5] worked out at 300 mmol. Besides, in data set [2], the Potency index is 4%.

On to `CCCCCCCC(CC)C(O)CO` (stereo not drawn) [3-Ethyl-1,2-decanediol], for which, in data set [2], the Potency index entry is given as “Not effective” and the LC50 value entry is given as “Not calculable”.

Consider `CCCCCCCC(CC)CCO` (stereo not drawn) [3-Ethyl-1-decanol], for which, in data set [2], the Potency index was 20% and the LC50 was found to be 62 mM.

As for `CCCCCCCCC(CCCCCCC)C(O)CO` (stereo not drawn) [3-Octyl-1,2-decanediol], in data set [2], the Potency index was determined as 12% and the 50% lethal concentration (LC50) came to 97 mM.

With `CCCCCCC(O)CCC` (stereo not drawn) [4-Decanol], in data set [2], the Potency index turned out to be 6% and the LC50 value is 183 mmol.

With `C=CCCCCCCCCO` [9-Decene-1-ol], in data set [2], the Potency index stood at 36% and the median lethal concentration (LC50) was found to be 33 mM.

Turning to `OCCCCCCCCCCO` [decane-1,10-diol], the “insecticidal activity (in words)” value with house flies (house flies) is listed as “did not exhibit insecticidal activity”.

The term LC50 denotes the concentration that kills 50% of the test population.

These data come from US9456601B2, “Pesticides based on vicinal diols” (priority 2001, dated 2016).
